Reference: paper PMC9944328 (Nature Communications, 2023)

System: SSTR2 mutants
Test: NanoBiT β-arrestin 1 recruitment assay, HEK293 (SSTR2 mutants);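 on Best-fit Bottom: percent of maximal wild-type SSTR2 response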;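 on Best-fit Span: percent of maximal wild-type SSTR2 response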;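 on Best-fit Top: percent of maximal wild-type SSTR2 response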;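 on Bottom (best-fit): percent of maximal wild-type response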;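 on Span (best-fit value): percent of maximal wild-type response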;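 on Span (best-fit): percent of maximal wild-type response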;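 on Top (best-fit value): percent of maximal wild-type response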;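 on Top (best-fit): percent of maximal wild-type response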
Assay type: cell-based, human
Details: for Bottom (β-arrestin1 recruitment) / LogEC50 (β-arrestin1 recruitment) / Span (β-arrestin1 recruitment) / Top (β-arrestin1 recruitment): best-fit
Procedure: The NanoBiT β-arrestin 1 recruitment assays were carried out according to the method described previously. […] Human full-length SSTR wild-type and mutant vectors were C-terminally fused with a 15-amino acid flexible linker and the small fragment (SmBiT). HEK293 cells were seeded into six-well microplates at a density of 1.0 × 10^6 cells/well and cultured for 24 h at 37 °C with 5% CO2. After that, cells were co-transfected with pcDNA3.1+ vectors encoding SSTR wild-type or mutants and human β-arrestin 1. After transfecting for 24 h, the transfected cells were suspended and seeded into white 96-well plates, and then cultured at 37 °C overnight. After that the medium in each well was exchanged for 90 μl of 0.01% bovine serum albumin containing 20 μl of 50 μM coelenterazine h (Carbosynth) diluted in the HBSS assay buffer and incubated for 40 min at room temperature. Then, ligands diluted in the assay buffer was added to each well and the luminescence intensity was measured using the Synergy H1 microplate reader and detected at room temperature in a time period. All data presented are means of at least three independent experiments.

N#Cc1cccc(-c2ccc3ncc(-c4cc(F)cc(F)c4)c(N4CCC(N)CC4)c3c2)c1O [paltusotine]
Bottom (best-fit) (F127A-1): -1.415 | LogEC50 (best-fit) (F127A-1): -6.677 | Span (best-fit) (F127A-1): 63.7 | Top (best-fit) (F127A-1): 62.28 | Bottom (best-fit) (F127A-2): -1.034 | LogEC50 (best-fit) (F127A-2): -6.706 | Span (best-fit) (F127A-2): 59.48 | Top (best-fit) (F127A-2): 58.45 | Bottom (best-fit) (F127A-3): -1.184 | LogEC50 (best-fit) (F127A-3): -6.817 | Span (best-fit) (F127A-3): 69.08 | Top (best-fit) (F127A-3): 67.89 | β-arrestin recruitment of mutant (F294(7.35)A): slightly influenced the β-arrestin pathway | β-arrestin recruitment of mutants (I284ECL3A, K291(7.32)A and N276(6.55)A): slightly enhanced recruitment of β-arrestin | Best-fit Bottom (SSTR2 I284A, run 1): -1.437 | Best-fit LogEC50 (SSTR2 I284A, run 1): -6.742 | Best-fit Span (SSTR2 I284A, run 1): 206.6 | Best-fit Top (SSTR2 I284A, run 1): 205.2 | Best-fit Bottom (SSTR2 I284A, run 2): -1.082 | Best-fit LogEC50 (SSTR2 I284A, run 2): -6.742 | Best-fit Span (SSTR2 I284A, run 2): 155.6 | Best-fit Top (SSTR2 I284A, run 2): 154.5 | Best-fit Bottom (SSTR2 I284A, run 3): -1.233 | Best-fit LogEC50 (SSTR2 I284A, run 3): -6.745 | Best-fit Span (SSTR2 I284A, run 3): 219.6 | Best-fit Top (SSTR2 I284A, run 3): 218.3 | Bottom (best-fit value) (SSTR2 W269A, run W269A-1): -0.1166 | LogEC50 (best-fit value) (SSTR2 W269A, run W269A-1): -6.523 | Span (best-fit value) (SSTR2 W269A, run W269A-1): 23.55 | Top (best-fit value) (SSTR2 W269A, run W269A-1): 23.43 | Bottom (best-fit value) (SSTR2 W269A, run W269A-2): -0.1813 | LogEC50 (best-fit value) (SSTR2 W269A, run W269A-2): -6.214 | Span (best-fit value) (SSTR2 W269A, run W269A-2): 28.45 | Top (best-fit value) (SSTR2 W269A, run W269A-2): 28.27 | Bottom (best-fit value) (SSTR2 W269A, run W269A-3): 0.3375 | LogEC50 (best-fit value) (SSTR2 W269A, run W269A-3): -6.325 | Span (best-fit value) (SSTR2 W269A, run W269A-3): 20.32 | Top (best-fit value) (SSTR2 W269A, run W269A-3): 20.66 | Best-fit Bottom (SSTR2 Y50A, run 1): -1.913 | Best-fit LogEC50 (SSTR2 Y50A, run 1): -7.128 | Best-fit Span (SSTR2 Y50A, run 1): 70.62 | Best-fit Top (SSTR2 Y50A, run 1): 68.71 | Best-fit Bottom (SSTR2 Y50A, run 2): -2.472 | Best-fit LogEC50 (SSTR2 Y50A, run 2): -7.187 | Best-fit Span (SSTR2 Y50A, run 2): 103.4 | Best-fit Top (SSTR2 Y50A, run 2): 100.9 | Best-fit Bottom (SSTR2 Y50A, run 3): -2.529 | Best-fit LogEC50 (SSTR2 Y50A, run 3): -7.176 | Best-fit Span (SSTR2 Y50A, run 3): 105.2 | Best-fit Top (SSTR2 Y50A, run 3): 102.6 | Bottom (best-fit value) (SSTR2 Y205A, run Y205A-1): -3.142 | LogEC50 (best-fit value) (SSTR2 Y205A, run Y205A-1): -6.819 | Span (best-fit value) (SSTR2 Y205A, run Y205A-1): 125.5 | Top (best-fit value) (SSTR2 Y205A, run Y205A-1): 122.3 | Bottom (best-fit value) (SSTR2 Y205A, run Y205A-2): -4.259 | LogEC50 (best-fit value) (SSTR2 Y205A, run Y205A-2): -6.824 | Span (best-fit value) (SSTR2 Y205A, run Y205A-2): 138.9 | Top (best-fit value) (SSTR2 Y205A, run Y205A-2): 134.6 | Bottom (best-fit value) (SSTR2 Y205A, run Y205A-3): -4.015 | LogEC50 (best-fit value) (SSTR2 Y205A, run Y205A-3): -6.671 | Span (best-fit value) (SSTR2 Y205A, run Y205A-3): 203.2 | Top (best-fit value) (SSTR2 Y205A, run Y205A-3): 199.2 | β-arrestin signal of mutant (V103(2.64)A): markedly reduced the paltusotine-induced β-arrestin signal | Bottom (β-arrestin1 recruitment) (D295A-1): 0.727 | LogEC50 (β-arrestin1 recruitment) (D295A-1): -5.635 | Span (β-arrestin1 recruitment) (D295A-1): 100 | Top (β-arrestin1 recruitment) (D295A-1): 100.7 | Bottom (β-arrestin1 recruitment) (D295A-2): 1.431 | LogEC50 (β-arrestin1 recruitment) (D295A-2): -5.595 | Span (β-arrestin1 recruitment) (D295A-2): 100.8 | Top (β-arrestin1 recruitment) (D295A-2): 102.3 | Bottom (β-arrestin1 recruitment) (D295A-3): 0.3814 | LogEC50 (β-arrestin1 recruitment) (D295A-3): -5.706 | Span (β-arrestin1 recruitment) (D295A-3): 93.14 | Top (β-arrestin1 recruitment) (D295A-3): 93.53 | Bottom (β-arrestin1 recruitment) (F294A-1): -2.632 | LogEC50 (β-arrestin1 recruitment) (F294A-1): -5.979 | Span (β-arrestin1 recruitment) (F294A-1): 125.8 | Top (β-arrestin1 recruitment) (F294A-1): 123.2 | Bottom (β-arrestin1 recruitment) (F294A-2): -1.982 | LogEC50 (β-arrestin1 recruitment) (F294A-2): -5.979 | Span (β-arrestin1 recruitment) (F294A-2): 94.75 | Top (β-arrestin1 recruitment) (F294A-2): 92.77 | Bottom (β-arrestin1 recruitment) (F294A-3): -2.454 | LogEC50 (β-arrestin1 recruitment) (F294A-3): -6.059 | Span (β-arrestin1 recruitment) (F294A-3): 130.8 | Top (β-arrestin1 recruitment) (F294A-3): 128.3 | Bottom (β-arrestin1 recruitment) (K291A-1): -2.723 | LogEC50 (β-arrestin1 recruitment) (K291A-1): -7.098 | Span (β-arrestin1 recruitment) (K291A-1): 158 | Top (β-arrestin1 recruitment) (K291A-1): 155.2 | Bottom (β-arrestin1 recruitment) (K291A-2): -3.352
